In patent publication EP2951180B1, “2,6,7,8 SUBSTITUTED PURINES AS HDM2 INHIBITORS” (Merck Sharp & Dohme Corp., priority 2013, dated 2014):

target: T1, HDM2 (Homo sapiens, UniProt Q00987); assay: FRET assay (HDM2 inhibition; method not described in this part); type: binding; details: Table 1
T1 construct: Thioredoxin (N); made in house; host or cells: E. coli strain BL21(DE3)Rosetta
T1 sequence (Q00987 17-125): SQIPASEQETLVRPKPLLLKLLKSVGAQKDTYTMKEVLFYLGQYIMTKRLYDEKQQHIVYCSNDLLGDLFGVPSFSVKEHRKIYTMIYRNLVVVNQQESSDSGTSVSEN

| Structure (SMILES) | IC50 |
| --- | --- |
| C[C@@H](Nc1nc(C(=O)O)nc2nc(-c3ccccc3)n(Cc3ccc(C(F)(F)F)cc3)c12)C1CC1 [Example 1.96, 6-{[(1R)-1-cyclopropylethyl]amino} -8-phenyl-7-[4-(trifluoromethyl)benzyl]-7H-purine-2-carboxylic acid] | 371 nM |
| C[C@@H](Nc1nc(C(=O)O)nc2nc(-c3ccc(N4CCOCC4)cc3)n(Cc3ccc(C(F)(F)F)cc3)c12)C1CC1 [Example 1.97, 6-{[(1R)-1-cyclopropylethyl]amino} -8-(4-morpholin-4-ylphenyl)-7-[4-(trifluoromethyl)benzyl]-7H-purine-2-carboxylic acid] | 1540 nM |
| CC(C)Oc1cccc(-c2nc3nc(C(=O)O)nc(N[C@H](C)C4CC4)c3n2Cc2ccc(C(F)(F)F)cc2)c1 [Example 1.98, 6-{[(1R)-1-cyclopropylethyl]amino} -8-[3-(1-methylethoxy)phenyl]-7-[4-(trifluoromethyl)benzyl]-7H-purine-2-carboxylic acid] | 316 nM |
| Cc1ccc(C)c(-c2nc3nc(C(=O)O)nc(N[C@H](C)C4CCC4)c3n2Cc2ccc(C(F)(F)F)cc2)c1 [Example 1.99, 6-{[(1R)-1-cyclobutylethyl]amino}-8-(2,5-dimethylphenyl)-7-[4-(trifluoromethyl)benzyl]-7H-purine-2-carboxylic acid] | 14.9 nM |
| C[C@@H](Nc1nc(C(=O)O)nc2nc(-c3ccc(OC(F)F)cc3)n(Cc3ccc(C(F)(F)F)cc3)c12)C1CCC1 [Example 1.100, 6-{[(1R)-1-cyclobutylethyl]amino}-8-[4-(difluoromethoxy)phenyl]-7-[4-(trifluoromethyl)benzyl]-7H-purine-2-carboxylic acid] | 51.8 nM |
| CC(O)c1ccc(-c2nc3nc(C(=O)O)nc(N[C@H](C)C4CCC4)c3n2Cc2ccc(C(F)(F)F)cc2)cc1 (stereo partly drawn) [Example 1.101, 6-{[(1R)-1-cyclobutylethyl]amino}-8-[4-(1-hydroxyethyl)phenyl]-7-[4-(trifluoromethyl)benzyl]-7H-purine-2-carboxylic acid] | 34.2 nM |
| Cc1ccc(-c2nc3nc(C(=O)O)nc(N[C@H](C)C4CCC4)c3n2Cc2ccc(C(F)(F)F)cc2)cc1F [Example 1.102, 6-{[(1R)-1-cyclobutylethyl]amino}-8-(3-fluoro-4-methylphenyl)-7-[4-(trifluoromethyl)benzyl]-7H-purine-2-carboxylic acid] | 20.3 nM |
| Cc1ccc(F)cc1-c1nc2nc(C(=O)O)nc(N[C@H](C)C3CCC3)c2n1Cc1ccc(C(F)(F)F)cc1 [Example 1.103, 6-{[(1R)-1-cyclobutylethyl]amino}-8-(5-fluoro-2-methylphenyl)-7-[4-(trifluoromethyl)benzyl]-7H-purine-2-carboxylic acid] | 10.8 nM |
| COc1ccc(-c2nc3nc(C(=O)O)nc(N[C@H](C)C4CCC4)c3n2Cc2ccc(C(F)(F)F)cc2)cc1F [Example 1.104, 6-{[(1R)-1-cyclobutylethyl]amino}-8-(3-fluoro-4-methoxyphenyl)-7-[4-(trifluoromethyl)benzyl]-7H-purine-2-carboxylic acid] | 17.4 nM |
| COc1ccc(-c2nc3nc(C(=O)O)nc(N[C@H](C)C4CCC4)c3n2Cc2ccc(C(F)(F)F)cc2)cc1C [Example 1.105, 6-{[(1R)-1-cyclobutylethyl]amino}-8-(4-methoxy-3-methylphenyl)-7-[4-(trifluoromethyl)benzyl]-7H-purine-2-carboxylic acid] | 16.5 nM |
| C[C@@H](Nc1nc(C(=O)O)nc2nc(-c3ccc4nccnc4c3)n(Cc3ccc(C(F)(F)F)cc3)c12)C1CCC1 [Example 1.106, 6-{[(1R)-1-cyclobutylethyl]amino}-8-quinoxalin-6-yl-7-[4-(trifluoromethyl)benzyl]-7H-purine-2-carboxylic acid] | 23.5 nM |
| C[C@@H](Nc1nc(C(=O)O)nc2nc(-c3cccc(-n4cccc4)c3)n(Cc3ccc(C(F)(F)F)cc3)c12)C1CCC1 [Example 1.107, 6-{[(1R)-1-cyclobutylethyl]amino}-8-[3-(1H-pyrrol-1-yl)phenyl]-7-[4-(trifluoromethyl)benzyl]-7H-purine-2-carboxylic acid] | 34.8 nM |
| C[C@@H](Nc1nc(C(=O)O)nc2nc(-c3ccc4c(ccn4C)c3)n(Cc3ccc(C(F)(F)F)cc3)c12)C1CCC1 [Example 1.108, 6-{[(1R)-1-cyclobutylethyl]amino}-8-(1-methyl-1H-indol-5-yl)-7-[4-(trifluoromethyl)benzyl]-7H-purine-2-carboxylic acid] | 60.9 nM |
| C[C@@H](Nc1nc(C(=O)O)nc2nc(-c3ccc(-c4ccccc4)cc3)n(Cc3ccc(C(F)(F)F)cc3)c12)C1CCC1 [Example 1.109, 8-biphenyl-4-yl-6-{[(1R)-1-cyclobutylethyl]amino}-7-[4-(trifluoromethyl)benzyl]-7H-purine-2-carboxylic acid] | 473 nM |
| C[C@@H](Nc1nc(C(=O)O)nc2nc(-c3ccc(C4CCCCC4)cc3)n(Cc3ccc(C(F)(F)F)cc3)c12)C1CCC1 [Example 1.110, 6-{[(1R)-1-cyclobutylethyl]amino}-8-(4-cyclohexylphenyl)-7-[4-(trifluoromethyl)benzyl]-7H-purine-2-carboxylic acid] | 3700 nM |
| Cc1ccc2cc(-c3nc4nc(C(=O)O)nc(N[C@H](C)C5CCC5)c4n3Cc3ccc(C(F)(F)F)cc3)ccc2n1 [Example 1.111, 6-{[(1R)-1-cyclobutylethyl]amino}-8-(2-methylquinolin-6-yl)-7-[4-(trifluoromethyl)benzyl]-7H-purine-2-carboxylic acid] | 128 nM |
| C[C@@H](Nc1nc(C(=O)O)nc2nc(-c3ccc(-c4ccccc4)c(F)c3)n(Cc3ccc(C(F)(F)F)cc3)c12)C1CCC1 [Example 1.112, 6-{[(1R)-1-cyclobutylethyl]amino}-8-(2-fluorobiphenyl-4-yl)-7-[4-(trifluoromethyl)benzyl]-7H-purine-2-carboxylic acid] | 344 nM |
| C[C@@H](Nc1nc(C(=O)O)nc2nc(-c3ccc(N(C)C)cc3)n(Cc3ccc(C(F)(F)F)cc3)c12)C1CCC1 [Example 1.113, 6-{[(1R)-1-cyclobutylethyl]amino}-8-[4-(dimethylamino)phenyl]-7-[4-(trifluoromethyl)benzyl]-7H-purine-2-carboxylic acid] | 716 nM |
| C[C@@H](Nc1nc(C(=O)O)nc2nc(-c3ccc(C(C)(C)C)cc3)n(Cc3ccc(C(F)(F)F)cc3)c12)C1CCC1 [Example 1.114, 8-(4-tert-butylphenyl)-6-{[(1R)-1-cyclobutylethyl]amino}-7-[4-(trifluoromethyl)benzyl]-7H-purine-2-carboxylic acid] | 393 nM |
| C[C@@H](Nc1nc(C(=O)O)nc2nc(-c3ccc(Cl)c(C(F)(F)F)c3)n(Cc3ccc(C(F)(F)F)cc3)c12)C1CCC1 [Example 1.115, 8-[4-chloro-3-(trifluoromethyl)phenyl]-6-{[(1R)-1-cyclobutylethyl]amino}-7-[4-(trifluoromethyl)benzyl]-7H-purine-2-carboxylic acid] | 17.3 nM |
| C[C@@H](Nc1nc(C(=O)O)nc2nc(-c3ccc(C(=O)C4CC4)cc3)n(Cc3ccc(C(F)(F)F)cc3)c12)C1CCC1 [Example 1.116, 6-{[(1R)-1-cyclobutylethyl]amino}-8-[4-(cyclopropylcarbonyl)phenyl]-7-[4-(trifluoromethyl)benzyl] - 7H-purine-2-carboxylic acid] | 66.3 nM |
